In patent US20250188078A1, “SMALL MOLECULE INHIBITORS OF THE CRL4 UBIQUITIN LIGASE” (Cornell University, priority 2022, published 2025):

Target: CUL4A-DDB1-BPB interaction (Homo sapiens (Human), UniProt Q16531)
Assay: AlphaLISA in vitro binding assay, CUL4A and DDB1-BPB binding
Conditions: inhibition of CUL4A and DDB1-BPB binding
Description: AlphaLISA IC50 (see Table 1, column 4) means the half maximal inhibitory concentration of compound that inhibits CUL4A and DDB1-BPB binding. Our lab established and optimized 384 well-based AlphaLISA in vitro binding assay for testing small molecule inhibitory activity. Small molecule libraries were screened for compounds that disrupt CUL4A-DDB1-BPB interaction using AlphaScreen detection beads (PerkinElmer, #AL112C and #6765300) following the manufacturer's protocol (https://www.perkinelmer.com/PDFs/downloads/GDE-Alphatech.pdf, hereby incorporated by reference in its entirety for all purposes). The 384-well assay plates (Greiner Bio-one, #781075) were read in Synergy Neo2 Hybrid Multi-Mode Reader (BioTek). The IC50 was calculated by Prism 8 XY analysis nonlinear regression (curve fit-Log(inhibitor) vs response).

Sequence of CUL4A-DDB1-BPB interaction (Q16531 403-706): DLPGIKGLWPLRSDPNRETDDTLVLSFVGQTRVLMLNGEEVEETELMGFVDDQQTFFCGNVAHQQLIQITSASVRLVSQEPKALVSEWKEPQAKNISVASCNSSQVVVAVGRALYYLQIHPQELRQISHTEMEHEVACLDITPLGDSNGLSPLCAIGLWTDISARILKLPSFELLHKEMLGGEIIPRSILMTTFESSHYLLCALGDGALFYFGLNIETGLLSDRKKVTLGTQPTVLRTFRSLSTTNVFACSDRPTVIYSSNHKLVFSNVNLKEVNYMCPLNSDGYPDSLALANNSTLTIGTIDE

| SMILES | IC50 | AlphaLisa IC50 |
| --- | --- | --- |
| O=C(O)c1cc2c([nH]c3ccccc32)c(-c2cccc(Cl)c2)n1 [PA6] | 3.97 ± 0.79 µM | – |
| Cn1c2ccccc2c2cc(C(=O)O)nc(-c3ccc([N+](=O)[O-])cc3)c21 [PA14, 9-methyl-1-(4-nitrophenyl)pyrido[3,4-b]indole-3-carboxylic acid] | 32.2 ± 7.89 µM | – |
| O=C(O)c1cc2c([nH]c3ccccc32)c(-c2ccc(CO)cc2)n1 [PA21] | 3.4 ± 0.88 µM | – |
| O=C(O)c1cc2c([nH]c3ccccc32)c(-c2cccc(O)c2)n1 [PA22] | 14.7 ± 3.25 µM | – |
| N#Cc1cccc(-c2nc(C(=O)O)cc3c2[nH]c2ccccc23)c1 [PA23] | 2.38 ± 0.9 µM | – |
| CN1C=C(c2nc(C(=O)O)cc3c2[nH]c2ccccc23)C=NC1 [PA26] | 4.81 ± 0.96 µM | – |
| O=C(O)c1cc2c([nH]c3ccccc32)c(-c2ncc[nH]2)n1 [PA27] | 23.1 ± 4.02 µM | – |
| O=C(O)c1cc2c([nH]c3ccccc32)c(-c2ccc3[nH]ccc3c2)n1 [PA28, 1-(1H-indol-5-yl)-9H-pyrido[3,4-b]indole-3-carboxylic acid] | 34.8 ± 8.75 µM | – |
| Cc1c(/C(=N\CC(=O)O)c2ccc3[nH]ncc3c2)[nH]c2ccccc12 [PA29] | 3.79 ± 1.02 µM | – |
| O=[N+]([O-])c1ccc(-c2nc(Br)cc3c2[nH]c2ccc(Br)cc23)cc1 [PA30, 3,6-dibromo-1-(4-nitrophenyl)-9H-pyrido[3,4-b]indole] | – | Neg |
| O=C(O)c1cc2c([nH]c3ccccc32)c(-c2ccc(F)c(F)c2)n1 [PA32] | 3.54 ± 0.68 µM | – |
| O=C(O)c1cc2c([nH]c3ccccc32)c(-c2cccc([N+](=O)[O-])c2)n1 [PA36] | 7.1 ± 0.61 µM | – |
| CS(=O)(=O)Nc1cc2c([nH]c3ccccc32)c(-c2ccc([N+](=O)[O-])cc2)n1 [PA38, N-[1-(4-nitrophenyl)-9H-pyrido[3,4-b]indol-3-yl]methanesulfonamide] | – | Neg |
| NS(=O)(=O)c1cc2c([nH]c3ccc(Cl)cc32)c(-c2ccc([N+](=O)[O-])cc2)n1 [PA41, 6-chloro-1-(4-nitrophenyl)-9H-pyrido[3,4-b]indole-3-sulfonamide] | – | Neg |
| CCS(=O)(=O)c1ccc(-c2nc(C(=O)O)cc3c2[nH]c2ccccc23)cc1 [PA45, 1-(4-ethylsulfonylphenyl)-9Hpyrido[3,4-b]indole-3-carboxylic acid] | 0.94 ± 0.24 µM | – |
| NS(=O)(=O)c1ccc(-c2nc(C(=O)O)cc3c2[nH]c2ccccc23)cc1 [PA49, 1-(4-sulfamoylphenyl)-9H-pyrido[3,4-b]indole-3-carboxylic acid] | 0.96 ± 0.096 µM | – |
| CN(C)S(=O)(=O)c1ccc(-c2nc(C(=O)O)cc3c2[nH]c2ccccc23)cc1 [PA50, 1-[4-(dimethylsulfamoyl)phenyl]-9H-pyrido[3,4-b]indole-3-carboxylic acid] | 0.81 ± 0.21 µM | – |
| O=C(O)c1cc2c([nH]c3ccccc32)c(-c2ccc(-c3ccc(F)cc3)cc2)n1 [PA58] | 5.5 ± 1.89 µM | – |
| Cc1ccc(-c2ccc(-c3nc(C(=O)O)cc4c3[nH]c3ccccc34)cc2)cc1 [PA59] | 25 ± 12.5 µM | – |
| CS(=O)(=O)c1ccc(-c2ccc(-c3nc(C(=O)O)cc4c3[nH]c3ccccc34)cc2)cc1 [PA61] | 3.86 ± 0.59 µM | – |
| O=C(O)c1cc2c([nH]c3ccccc32)c(-c2ccc(C#Cc3ccccc3)cc2)n1 [PA62] | 36.5 ± 9.9 µM | – |
| COCCOCC#Cc1ccc(-c2nc(C(=O)O)cc3c2[nH]c2ccccc23)cc1 [PA63] | 5.05 ± 0.2 µM | – |
| CS(=O)(=O)c1ccc(-c2nc(C(=O)O)nc3c2[nH]c2ccccc23)cc1 [PA70, 4-(4-methylsulfonylphenyl)-5H-pyrimido[5,4-b]indole-2-carboxylic acid] | 9.04 ± 0.89 µM | – |
| O=C(O)c1cc2c([nH]c3ccccc32)c(-c2ccc(NS(=O)(=O)c3ccccc3)cc2)n1 [PA77, 1-[4-(benzenesulfonamido)phenyl]-9H-pyrido[3,4-b]indole-3-carboxylic acid] | 1.52 ± 0.19 µM | – |
